In ChEMBL document CHEMBL3797052 (Eur J Med Chem, 2016):

Test system: not listed separately
Assay: Antiproliferative activity against human Hs 578T cells assessed as cell growth at 10^-5 M after 48 hrs by sulforhodamine B assay
Format: functional
Conditions: read-out: Activity
Work on `CNC(=O)c1cc(Oc2ccc3nc(NC(=O)Nc4ccc(Cl)c(C(F)(F)F)c4)sc3c2)ccn1` yielded a growth at 10 µM of -17%.

Test system: not listed separately
Assay: Antiproliferative activity against human SW620 cells assessed as cell growth at 10^-5 M after 48 hrs by sulforhodamine B assay
Format: functional
Conditions: SW-620, 48 h, read-out: Activity
For `CNC(=O)c1cc(Oc2ccc3nc(NC(=O)Nc4ccc(Cl)c(C(F)(F)F)c4)sc3c2)ccn1`, the growth at 10 µM was 4%.

Test system: not listed separately
Assay: Antiproliferative activity against human HL-60(TB) cells assessed as cell growth at 10^-5 M after 48 hrs by sulforhodamine B assay
Format: functional
Conditions: HL-60, 48 h, read-out: Activity
Compound `CNC(=O)c1cc(Oc2ccc3nc(NC(=O)Nc4ccc(Cl)c(C(F)(F)F)c4)sc3c2)ccn1` has a growth at 10 µM of 52%.

Test system: not listed separately
Assay: Antiproliferative activity against human BT549 cells assessed as cell growth at 10^-5 M after 48 hrs by sulforhodamine B assay
Format: functional
Conditions: BT-549, 48 h, read-out: Activity
With `CNC(=O)c1cc(Oc2ccc3nc(NC(=O)Nc4ccc(Cl)c(C(F)(F)F)c4)sc3c2)ccn1` the growth at 10 µM was -1%.

Test system: not listed separately
Assay: Cytotoxicity against human SKBR3 cells assessed as growth inhibition at 10 uM after 2 days by MTT assay
Format: functional
Conditions: SK-BR-3, 48 h, read-out: GI
For `CNC(=O)c1cc(Oc2ccc3nc(NC(=O)Nc4ccc(Cl)c(C(F)(F)F)c4)sc3c2)ccn1`, the inhibition of growth at 10 µM was 79.6%.

Test system: MDA-MB-435
Assay: Antiproliferative activity against human MDA-MB-435 cells assessed as cell growth at 10^-5 M after 48 hrs by sulforhodamine B assay
Format: functional
Conditions: MDA-MB-435, 48 h, read-out: Activity
`CNC(=O)c1cc(Oc2ccc3nc(NC(=O)Nc4ccc(Cl)c(C(F)(F)F)c4)sc3c2)ccn1` showed a growth at 10 µM of -36%.

Test system: not listed separately
Assay: Antiproliferative activity against human UACC62 cells assessed as cell growth at 10^-5 M after 48 hrs by sulforhodamine B assay
Format: functional
Conditions: UACC-62, 48 h, read-out: Activity
`CNC(=O)c1cc(Oc2ccc3nc(NC(=O)Nc4ccc(Cl)c(C(F)(F)F)c4)sc3c2)ccn1` gave a growth at 10 µM of -22%.

Test system: not listed separately
Assay: Antiproliferative activity against human HCT116 cells assessed as cell growth at 10^-5 M after 48 hrs by sulforhodamine B assay
Format: functional
Conditions: HCT-116, 48 h, read-out: Activity
Work on `CNC(=O)c1cc(Oc2ccc3nc(NC(=O)Nc4ccc(Cl)c(C(F)(F)F)c4)sc3c2)ccn1` yielded a growth at 10 µM of -29%.

Test system: not listed separately
Assay: Antiproliferative activity against human Caki1 cells assessed as cell growth at 10^-5 M after 48 hrs by sulforhodamine B assay
Format: functional
Conditions: CAKI-1, 48 h, read-out: Activity
`CNC(=O)c1cc(Oc2ccc3nc(NC(=O)Nc4ccc(Cl)c(C(F)(F)F)c4)sc3c2)ccn1` showed a growth at 10 µM of -16%.

Test system: HT-29
Assay: Antiproliferative activity against human HT-29 cells assessed as cell growth at 10^-5 M after 48 hrs by sulforhodamine B assay
Format: functional
Conditions: HT-29, 48 h, read-out: Activity
With `CNC(=O)c1cc(Oc2ccc3nc(NC(=O)Nc4ccc(Cl)c(C(F)(F)F)c4)sc3c2)ccn1` the growth at 10 µM was 5%.

Test system: not listed separately
Assay: Cytotoxicity against human SKBR3 cells assessed as growth inhibition at 100 uM after 2 days by MTT assay
Format: functional
Conditions: SK-BR-3, 48 h, read-out: GI
With `CNC(=O)c1cc(Oc2ccc3nc(NC(=O)Nc4ccc(Cl)c(C(F)(F)F)c4)sc3c2)ccn1` the inhibition of growth at 100 µM was 94.5%.

Test system: not listed separately
Assay: Cytotoxicity against human HCT116 cells assessed as growth inhibition at 100 uM after 2 days by MTT assay
Format: functional
Conditions: HCT-116, 48 h, read-out: GI
With `CNC(=O)c1cc(Oc2ccc3nc(NC(=O)Nc4ccc(Cl)c(C(F)(F)F)c4)sc3c2)ccn1` the inhibition of growth at 100 µM was 94.4%.

Test system: A498
Assay: Antiproliferative activity against human A498 cells assessed as cell growth at 10^-5 M after 48 hrs by sulforhodamine B assay
Format: functional
Conditions: A498, 48 h, read-out: Activity
With `CNC(=O)c1cc(Oc2ccc3nc(NC(=O)Nc4ccc(Cl)c(C(F)(F)F)c4)sc3c2)ccn1` the growth at 10 µM was 4%.

Test system: not listed separately
Assay: Antiproliferative activity against human COLO205 cells assessed as cell growth at 10^-5 M after 48 hrs by sulforhodamine B assay
Format: functional
Conditions: COLO 205, 48 h, read-out: Activity
For `CNC(=O)c1cc(Oc2ccc3nc(NC(=O)Nc4ccc(Cl)c(C(F)(F)F)c4)sc3c2)ccn1`, the growth at 10 µM was -11%.

Test system: T47D
Assay: Antiproliferative activity against human T47D cells assessed as cell growth at 10^-5 M after 48 hrs by sulforhodamine B assay
Format: functional
Conditions: read-out: Activity
`CNC(=O)c1cc(Oc2ccc3nc(NC(=O)Nc4ccc(Cl)c(C(F)(F)F)c4)sc3c2)ccn1` gave a growth at 10 µM of -34%.

Test system: not listed separately
Assay: Antiproliferative activity against human SF539 cells assessed as cell growth at 10^-5 M after 48 hrs by sulforhodamine B assay
Format: functional
Conditions: SF-539, 48 h, read-out: Activity
Work on `CNC(=O)c1cc(Oc2ccc3nc(NC(=O)Nc4ccc(Cl)c(C(F)(F)F)c4)sc3c2)ccn1` yielded a growth at 10 µM of -60%.

Test system: Malme-3M
Assay: Antiproliferative activity against human MALME-3M cells assessed as cell growth at 10^-5 M after 48 hrs by sulforhodamine B assay
Format: functional
Conditions: read-out: Activity
Work on `CNC(=O)c1cc(Oc2ccc3nc(NC(=O)Nc4ccc(Cl)c(C(F)(F)F)c4)sc3c2)ccn1` yielded a growth at 10 µM of -62%.

Test system: not listed separately
Assay: Antiproliferative activity against human SF268 cells assessed as cell growth at 10^-5 M after 48 hrs by sulforhodamine B assay
Format: functional
Conditions: SF-268, 48 h, read-out: Activity
In the case of `CNC(=O)c1cc(Oc2ccc3nc(NC(=O)Nc4ccc(Cl)c(C(F)(F)F)c4)sc3c2)ccn1`, the growth at 10 µM is reported as 1%.

Test system: KM12
Assay: Antiproliferative activity against human KM12 cells assessed as cell growth at 10^-5 M after 48 hrs by sulforhodamine B assay
Format: functional
Conditions: KM12, 48 h, read-out: Activity
With `CNC(=O)c1cc(Oc2ccc3nc(NC(=O)Nc4ccc(Cl)c(C(F)(F)F)c4)sc3c2)ccn1` the growth at 10 µM was 20%.

Test system: K562
Assay: Antiproliferative activity against human K562 cells assessed as cell growth at 10^-5 M after 48 hrs by sulforhodamine B assay
Format: functional
Conditions: K562, 48 h, read-out: Activity
For `CNC(=O)c1cc(Oc2ccc3nc(NC(=O)Nc4ccc(Cl)c(C(F)(F)F)c4)sc3c2)ccn1`, the growth at 10 µM was 32%.

Test system: not listed separately
Assay: Antiproliferative activity against human OVCAR4 cells assessed as cell growth at 10^-5 M after 48 hrs by sulforhodamine B assay
Format: functional
Conditions: OVCAR-4, 48 h, read-out: Activity
With `CNC(=O)c1cc(Oc2ccc3nc(NC(=O)Nc4ccc(Cl)c(C(F)(F)F)c4)sc3c2)ccn1` the growth at 10 µM was -75%.

Test system: not listed separately
Assay: Antiproliferative activity against human HCC2998 cells assessed as cell growth at 10^-5 M after 48 hrs by sulforhodamine B assay
Format: functional
Conditions: HCC 2998, 48 h, read-out: Activity
`CNC(=O)c1cc(Oc2ccc3nc(NC(=O)Nc4ccc(Cl)c(C(F)(F)F)c4)sc3c2)ccn1` gave a growth at 10 µM of 20%.

Test system: not listed separately
Assay: Antiproliferative activity against human DU145 cells assessed as cell growth at 10^-5 M after 48 hrs by sulforhodamine B assay
Format: functional
Conditions: DU-145, 48 h, read-out: Activity
With `CNC(=O)c1cc(Oc2ccc3nc(NC(=O)Nc4ccc(Cl)c(C(F)(F)F)c4)sc3c2)ccn1` the growth at 10 µM was -10%.

Test system: not listed separately
Assay: Antiproliferative activity against human HCT15 cells assessed as cell growth at 10^-5 M after 48 hrs by sulforhodamine B assay
Format: functional
Conditions: HCT-15, 48 h, read-out: Activity
Work on `CNC(=O)c1cc(Oc2ccc3nc(NC(=O)Nc4ccc(Cl)c(C(F)(F)F)c4)sc3c2)ccn1` yielded a growth at 10 µM of -9%.

Test system: not listed separately
Assay: Cytotoxicity against human HCT116 cells assessed as growth inhibition at 10 uM after 2 days by MTT assay
Format: functional
Conditions: HCT-116, 48 h, read-out: GI
Compound `CNC(=O)c1cc(Oc2ccc3nc(NC(=O)Nc4ccc(Cl)c(C(F)(F)F)c4)sc3c2)ccn1` has an inhibition of growth at 10 µM of 82.8%.

Test system: not listed separately
Assay: Antiproliferative activity against human UO31 cells assessed as cell growth at 10^-5 M after 48 hrs by sulforhodamine B assay
Format: functional
Conditions: UO-31, 48 h, read-out: Activity
Compound `CNC(=O)c1cc(Oc2ccc3nc(NC(=O)Nc4ccc(Cl)c(C(F)(F)F)c4)sc3c2)ccn1` has a growth at 10 µM of -54%.

Test system: NCI-H322M
Assay: Antiproliferative activity against human NCI-H322M cells assessed as cell growth at 10^-5 M after 48 hrs by sulforhodamine B assay
Format: functional
Conditions: read-out: Activity
For `CNC(=O)c1cc(Oc2ccc3nc(NC(=O)Nc4ccc(Cl)c(C(F)(F)F)c4)sc3c2)ccn1`, the growth at 10 µM was -14%.

Test system: SK-MEL-28
Assay: Antiproliferative activity against human SK-MEL-28 cells assessed as cell growth at 10^-5 M after 48 hrs by sulforhodamine B assay
Format: functional
Conditions: SK-MEL-28, 48 h, read-out: Activity
`CNC(=O)c1cc(Oc2ccc3nc(NC(=O)Nc4ccc(Cl)c(C(F)(F)F)c4)sc3c2)ccn1` gave a growth at 10 µM of -68%.

Test system: SK-MEL-2
Assay: Antiproliferative activity against human SK-MEL-2 cells assessed as cell growth at 10^-5 M after 48 hrs by sulforhodamine B assay
Format: functional
Conditions: SK-MEL-2, 48 h, read-out: Activity
Work on `CNC(=O)c1cc(Oc2ccc3nc(NC(=O)Nc4ccc(Cl)c(C(F)(F)F)c4)sc3c2)ccn1` yielded a growth at 10 µM of 37%.

Test system: not listed separately
Assay: Antiproliferative activity against human HOP92 cells assessed as cell growth at 10^-5 M after 48 hrs by sulforhodamine B assay
Format: functional
Conditions: HOP-92, 48 h, read-out: Activity
Work on `CNC(=O)c1cc(Oc2ccc3nc(NC(=O)Nc4ccc(Cl)c(C(F)(F)F)c4)sc3c2)ccn1` yielded a growth at 10 µM of -54%.

Test system: not listed separately
Assay: Antiproliferative activity against human HOP62 cells assessed as cell growth at 10^-5 M after 48 hrs by sulforhodamine B assay
Format: functional
Conditions: HOP-62, 48 h, read-out: Activity
`CNC(=O)c1cc(Oc2ccc3nc(NC(=O)Nc4ccc(Cl)c(C(F)(F)F)c4)sc3c2)ccn1` gave a growth at 10 µM of -42%.

Test system: not listed separately
Assay: Antiproliferative activity against human OVCAR8 cells assessed as cell growth at 10^-5 M after 48 hrs by sulforhodamine B assay
Format: functional
Conditions: OVCAR-8, 48 h, read-out: Activity
Compound `CNC(=O)c1cc(Oc2ccc3nc(NC(=O)Nc4ccc(Cl)c(C(F)(F)F)c4)sc3c2)ccn1` has a growth at 10 µM of -40%.

Test system: not listed separately
Assay: Antiproliferative activity against human RPMI8226 cells assessed as cell growth at 10^-5 M after 48 hrs by sulforhodamine B assay
Format: functional
Conditions: RPMI-8226, 48 h, read-out: Activity
`CNC(=O)c1cc(Oc2ccc3nc(NC(=O)Nc4ccc(Cl)c(C(F)(F)F)c4)sc3c2)ccn1` showed a growth at 10 µM of -10%.

Test system: MDA-MB-468
Assay: Antiproliferative activity against human MDA-MB-468 cells assessed as cell growth at 10^-5 M after 48 hrs by sulforhodamine B assay
Format: functional
Conditions: MDA-MB-468, 48 h, read-out: Activity
With `CNC(=O)c1cc(Oc2ccc3nc(NC(=O)Nc4ccc(Cl)c(C(F)(F)F)c4)sc3c2)ccn1` the growth at 10 µM was -40%.

Test system: NCI-H522
Assay: Antiproliferative activity against human NCI-H522 cells assessed as cell growth at 10^-5 M after 48 hrs by sulforhodamine B assay
Format: functional
Conditions: NCI-H522, 48 h, read-out: Activity
Work on `CNC(=O)c1cc(Oc2ccc3nc(NC(=O)Nc4ccc(Cl)c(C(F)(F)F)c4)sc3c2)ccn1` yielded a growth at 10 µM of 6%.
